# Data as given in patent publication US6737383B1, “Herbicidal oxadiazolidines” (priority 1999, dated 2004).
# Tests used:
# blackgrass = assay: Test B pre/postemergence blackgrass; type: in vivo, Alopecurus myosuroides
# Summary of the method: (§1)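 Response is a visual 0-to-10 score relative to untreated plants, where 0 means no effect and 10 means complete control, taken twelve to sixteen days after application. Treatments went onto soil at planting and onto foliage of 1- to 4-leaf plants, using a surfactant-containing non-phytotoxic solvent.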
# surinam grass = assay: Test B pre/postemergence surinam grass; type: in vivo, Brachiaria decumbens
# Summary of the method: as §1
# cocklebur = assay: Test B pre/postemergence cocklebur; type: in vivo, Xanthium strumarium
# Summary of the method: as §1
# corn = assay: Test B pre/postemergence corn; type: in vivo, Zea mays
# Summary of the method: as §1
# crabgrass = assay: Test B pre/postemergence crabgrass; type: in vivo, Digitaria sanguinalis
# Summary of the method: as §1
# giant foxtail = assay: Test B pre/postemergence giant foxtail; type: in vivo, Setaria faberii
# Summary of the method: as §1
# pigweed = assay: Test B pre/postemergence pigweed; type: in vivo, Amaranthus retroflexus
# Summary of the method: as §1
# rape = assay: Test B pre/postemergence rape; type: in vivo, Brassica napus
# Summary of the method: as §1
# soybean = assay: Test B pre/postemergence soybean; type: in vivo, Glycine max
# Summary of the method: as §1
# sugar beet = assay: Test B pre/postemergence sugar beet; type: in vivo, Beta vulgaris
# Summary of the method: as §1
# wheat = assay: Test B pre/postemergence wheat; type: in vivo, Triticum aestivum
# Summary of the method: as §1
# purple nutsedge = assay: Test B pre/postemergence purple nutsedge; type: in vivo, Cyperus rotundus
# Summary of the method: as §1
# rice = assay: Test B flood test rice; type: in vivo, Oryza sativa
# Summary of the method: (§2)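 Flood test on plants grown to the 2-leaf stage; treated plants kept in greenhouse twelve to sixteen days, then visually rated against controls on a 0 (no effect) to 10 (complete control) scale.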
# smallflower flatsedge = assay: Test B flood test smallflower flatsedge; type: in vivo, Cyperus difformis
# Summary of the method: as §2
# duck salad = assay: Test B flood test duck salad; type: in vivo, Heteranthera limosa
# Summary of the method: as §2
# bamyardgrass = assay: Test B flood test barnyardgrass; type: in vivo, Echinochloa crus-galli
# Summary of the method: as §2
# [1] = Postemergence, Rate 62 g/ha, scale 0 to 10, 0 is no effect, 10 is complete control
# [2] = Postemergence, Rate 250 g/ha, scale 0 to 10, 0 no effect, 10 complete control
# [3] = Preemergence, Rate 62 g/ha, scale 0 to 10, 0 is no effect, 10 is complete control
# [4] = Preemergence, Rate 125 g/ha, scale 0 to 10 (0 no effect, 10 complete control)
# [5] = Preemergence, Rate 250 g/ha, scale of 0 to 10 where 0 is no effect and 10 is complete control
# [6] = Preemergence, Rate 500 g/ha, scale 0 (no effect) to 10 (complete control)
# [7] = Rate 125 g/ha, Postemergence, scale 0 to 10, 0 no effect, 10 complete control
# [8] = Rate 500 g/ha, Postemergence, 0 to 10 scale (0 no effect, 10 complete control)
# [9] = Rate 125 g/ha, Postemergence section (flood test species), scale 0 to 10, 0 no effect, 10 complete control
# [10] = Rate 500 g/ha, Postemergence section of Table B, 0 to 10 scale (0 no effect, 10 complete control)
# [11] = flood test, listed under Postemergence, Rate 250 g/ha, scale 0 to 10, 0 no effect, 10 complete control
smiles,measurement,setting,value
CC(C)N(C(=O)n1oc(=O)n(-c2ccccc2C(F)(F)F)c1=O)c1ccc(F)cc1 [Compound 15],Blackgrass plant response rating,blackgrass; [1],0
same,Blackgrass plant response rating,blackgrass; [2],0
same,"Plant response rating, Blackgrass",blackgrass; [3],0
same,"Plant response rating, Blackgrass",blackgrass; [4],0
same,"Plant response rating, Blackgrass",blackgrass; [5],0
same,Blackgrass plant response rating,blackgrass; [6],0
same,Blackgrass plant response rating,blackgrass; [7],0
same,Blackgrass plant response rating,blackgrass; [8],3
same,B. signalgrass plant response rating,surinam grass; [1],0
same,B. signalgrass plant response rating,surinam grass; [2],0
same,"Plant response rating, B. signalgrass",surinam grass; [3],0
same,"Plant response rating, B. signalgrass",surinam grass; [4],0
same,"Plant response rating, B. signalgrass",surinam grass; [5],0
same,B. signalgrass plant response rating,surinam grass; [6],0
same,B. signalgrass plant response rating,surinam grass; [7],0
same,B. signalgrass plant response rating,surinam grass; [8],0
same,Cocklebur plant response rating,cocklebur; [1],0
same,Cocklebur plant response rating,cocklebur; [2],5
same,"Plant response rating, Cocklebur",cocklebur; [3],0
same,"Plant response rating, Cocklebur",cocklebur; [4],0
same,Cocklebur plant response rating,cocklebur; [6],0
same,Cocklebur plant response rating,cocklebur; [7],0
same,Cocklebur plant response rating,cocklebur; [8],8
same,Corn plant response rating,corn; [1],0
same,Corn plant response rating,corn; [2],0
same,"Plant response rating, Corn",corn; [3],0
same,"Plant response rating, Corn",corn; [4],0
same,Corn plant response rating,corn; [6],0
same,Corn plant response rating,corn; [7],0
same,Corn plant response rating,corn; [8],0
same,Crabgrass plant response rating,crabgrass; [1],0
same,Crabgrass plant response rating,crabgrass; [2],3
same,"Plant response rating, Crabgrass",crabgrass; [3],0
same,"Plant response rating, Crabgrass",crabgrass; [4],2
same,Crabgrass plant response rating,crabgrass; [6],10
same,Crabgrass plant response rating,crabgrass; [7],1
same,Crabgrass plant response rating,crabgrass; [8],8
same,Giant foxtail plant response rating,giant foxtail; [1],0
same,Giant foxtail plant response rating,giant foxtail; [2],0
same,"Plant response rating, Giant foxtail",giant foxtail; [3],6
same,"Plant response rating, Giant foxtail",giant foxtail; [4],8
same,Giant foxtail plant response rating,giant foxtail; [6],10
same,Giant foxtail plant response rating,giant foxtail; [7],0
same,Giant foxtail plant response rating,giant foxtail; [8],0
same,Redroot pigweed plant response rating,pigweed; [1],0
same,Redroot pigweed plant response rating,pigweed; [2],2
same,"Plant response rating, Redroot pigweed",pigweed; [3],0
same,"Plant response rating, Redroot pigweed",pigweed; [4],0
same,"Plant response rating, Redroot pigweed",pigweed; [5],0
same,Redroot pigweed plant response rating,pigweed; [6],8
same,Redroot pigweed plant response rating,pigweed; [7],0
same,Redroot pigweed plant response rating,pigweed; [8],6
same,Rape plant response rating,rape; [1],0
same,Rape plant response rating,rape; [2],0
same,"Plant response rating, Rape",rape; [3],0
same,"Plant response rating, Rape",rape; [4],0
same,"Plant response rating, Rape",rape; [5],0
same,Rape plant response rating,rape; [6],0
same,Rape plant response rating,rape; [7],0
same,Rape plant response rating,rape; [8],0
same,Soybean plant response rating,soybean; [1],2
same,Soybean plant response rating,soybean; [2],2
same,"Plant response rating, Soybean",soybean; [3],0
same,"Plant response rating, Soybean",soybean; [4],0
same,Soybean plant response rating,soybean; [6],0
same,Soybean plant response rating,soybean; [7],2
same,Sugarbeets plant response rating,sugar beet; [1],0
same,Sugarbeets plant response rating,sugar beet; [2],0
same,"Plant response rating, Sugarbeets",sugar beet; [3],0
same,"Plant response rating, Sugarbeets",sugar beet; [4],0
same,"Plant response rating, Sugarbeets",sugar beet; [5],3
same,Sugarbeets plant response rating,sugar beet; [6],6
same,Sugarbeets plant response rating,sugar beet; [7],0
same,Wheat plant response rating,wheat; [1],0
same,Wheat plant response rating,wheat; [2],0
same,"Plant response rating, Wheat",wheat; [3],0
same,"Plant response rating, Wheat",wheat; [4],0
same,"Plant response rating, Wheat",wheat; [5],0
same,Wheat plant response rating,wheat; [6],0
same,Wheat plant response rating,wheat; [7],0
same,Nutsedge plant response rating,purple nutsedge; [1],0
same,Nutsedge plant response rating,purple nutsedge; [2],0
same,"Plant response rating, Nutsedge",purple nutsedge; [3],0
same,"Plant response rating, Nutsedge",purple nutsedge; [4],0
same,Nutsedge plant response rating,purple nutsedge; [6],0
same,Nutsedge plant response rating,purple nutsedge; [7],0
same,Nutsedge plant response rating,purple nutsedge; [8],0
same,Rice plant response rating,rice; [1],0
same,Rice plant response rating,rice; [9],0
same,Rice plant response rating,rice; [10],0
same,Rice plant response rating,rice; [11],0
same,S. Flatsedge plant response rating,smallflower flatsedge; [1],0
same,S. Flatsedge plant response rating,smallflower flatsedge; [9],0
same,S. Flatsedge plant response rating,smallflower flatsedge; [11],0
same,Ducksalad plant response rating,duck salad; [1],0
same,Ducksalad plant response rating,duck salad; [9],0
same,Ducksalad plant response rating,duck salad; [10],0
same,Ducksalad plant response rating,duck salad; [11],0
same,Barnyardgrass plant response rating,bamyardgrass; [1],0
same,Barnyardgrass plant response rating,bamyardgrass; [9],0
same,Barnyardgrass plant response rating,bamyardgrass; [10],0
same,Barnyardgrass plant response rating,bamyardgrass; [11],0
